For series [1], the system named is soft tissue sarcomas (STS). The following applies: across all histological sub-types of STS; cited from earlier work.
For series [2], the system named is osteosarcoma xenotransplants. As to the kind of experiment: Osteosarcoma xenotransplant models, ADC (diffusion MRI) and tumor response. Particulars: for anti-tumor response: osteosarcoma xenotransplants; for shift of ADC histograms: within 48 hr following treatment. In kind it is in vivo, mouse. The text has this: Combined MRI and histology image analyses were used to examine effects of dasatinib+Tcn in a Ewings sarcoma model; and the response to a novel Wee-1 checkpoint inhibitor, MK1775, alone and in combination with gemcitabine in osteosarcoma xenotransplants [Kreahling J M, et al. Mol Cancer Ther. 2012 11(1):174-82; Kreahling J M, et al. PloS one. 2013 8(3):e57523]. In the Ewing's model, the pre-therapy spin-echo T2 and post-therapy response of ADC were compared to tumor volume changes.
In the osteosarcoma xenotransplant models, the change in ADC was measured following treatment with gemcitabine and the wee-1 inhibitor MK-1775, alone and in combination. […] The change in ADC was highly correlated with tumor growth rate response. Also, the shapes of the histograms changed with response, going from Gaussian to a log-normal distributions, with increased skewness.
At a deeper level of analysis, the ADC maps were analyzed for image entropy, which is calculated as the randomness of a 3×3 pixel matrix surrounding the pixel under test (P-U-T).

The test system of series [3] is orthotopically implanted Hs766t PDAC cells. As to the kind of experiment: DCE-MRI/diffusion MRI in orthotopically implanted Hs766t PDAC. In kind it is in vivo. The following applies: orthotopic Hs766t. The source says: (§1) In a parallel study, DCE-MRI and Diffusion MRI were investigated as response biomarkers to TH-302 in flank implanted MiaPaCa2 pancreatic adenocarcinoma (PDAC) models. […] 2012 30(7):1002-9]. In a follow-on study, orthotopically implanted Hs766t, MiaPaCa2 and Su.86.86 PDAC cells were used, which have differential sensitivities to TH-302 as monotherapy.

The test system of series [4] is orthotopically implanted MiaPaCa2 PDAC cells. As to the kind of experiment: DCE-MRI/diffusion MRI in orthotopically implanted MiaPaCa2 PDAC. The class given is in vivo. Particulars: orthotopic MiaPaCa2.
Text: as §1

For series [5], the system named is orthotopically implanted Su.86.86 PDAC cells. As to the kind of experiment: DCE-MRI/diffusion MRI in orthotopically implanted Su.86.86 PDAC. The class given is in vivo. The following applies: orthotopic Su.86.86.
Text: as §1

Series [6] deals with flank implanted MiaPaCa2 pancreatic adenocarcinoma (PDAC). The following applies: cited from earlier work.
For series [7] the following is noted: based on phase I data; cited from earlier work.
Series [8] has as its system regions of profound hypoxia. The following applies: cited from earlier work.
A further series deals with tumors in KPC mice. The following applies: KPC (KrasG12D; p53R172H; Pdx1-Cre) GEMM; cited from earlier work.

This is an account of results in patent publication US10827945B2, “Radiologically identified tumor habitats” (H. LEE MOFFITT CANCER CENTER AND RESEARCH INSTITUTE, INC., priority 2014, dated 2020).

As to `COc1cccc2c1C(=O)c1c(O)c3c(c(O)c1C2=O)C[C@@](O)(C(=O)CO)C[C@@H]3O[C@H]1C[C@H](N)[C@H](O)[C@H](C)O1` [DOX, doxorubicin], the response rate in series [1] is 25-40%.
For the compound `C=CCn1c(=O)c2cnc(Nc3ccc(N4CCN(C)CC4)cc3)nc2n1-c1cccc(C(C)(C)O)n1` [MK-1775], in series [2], the anti-tumor response entry is given as “non-responsive” and the “shift of ADC histograms” value is recorded as “not”. In series [2] (listed as MK1775), the anti-tumor response result is given as “did not”.
Take `Cn1c(COP(=O)(NCCBr)NCCBr)cnc1[N+](=O)[O-]` [TH-302]: in series [3], the “Ktrans in response to treatment” value is “decreases”, the “mean ADC” value was “no changes” and the sensitivity as monotherapy entry is “responsive”. For the same compound, in [4], the “Ktrans in response to treatment” value was “decreases”, the “mean ADC” value was “no changes” and the sensitivity as monotherapy entry is reported as “responsive”. Besides, in [5], the “Ktrans in response to treatment” value is reported as “not”, the “mean ADC” value is given as “no changes” and the sensitivity as monotherapy result is given as “resistant”. Also, the “ADC (diffusion MRI)” value in series [6] (at any time point) is listed as “no differences”. In addition, the “Ktrans (DCE-MRI)” value in series [6] (initial change, strongly correlated with tumor control) was “drop”. For the same compound, in series [7], the tolerability result is “well-tolerated”. In addition, the “pO2 at which the warhead is released” value in series [8] is listed as less than 10 mm Hg.
On to `Nc1ccn([C@@H]2O[C@H](CO)[C@@H](O)C2(F)F)c(=O)n1` [gemcitabine], for which the “change in average ADC-entropy values from pre-treatment” value in [2] (compared to controls (p=0.022) and MK1775 (p=0.023)) was “statistically larger variations in ADC values”. Also, the anti-tumor response entry is reported as “robust anti-tumor response” in [2] and “responded to therapy” in series [2] (listed as Gem). In series [2], the “shift of ADC histograms” value was “shifted to the right”. Further, in the series on tumors in KPC mice, the sensitivity of tumors entry was “generally resistant”.
